Laboratory results reported in patent US12653899B2, “Multi-targeted, tunable, sustained delivery of payloads to charged avascular tissues” (Massachusetts Institute of Technology, priority 2019, dated 2026).

Test system: human knee cartilage explants
Experiment: Aggrecan/sGAG biosynthesis rate (35S-sulfate incorporation) in human knee cartilage explants
Type: cell-based
Description: Cartilage was harvested from the knee joint of a donor. Cartilage explants were equilibrated in culture media for 2 days after harvest. […] These were cut down to 1 mm thickness and allowed to equilibrate for a further 2 days before the experiment was set up. Subsets of the experiment were terminated at 3 days and 7 days from the start of the experiment. Media changes were performed every 2 to 3 days.
For the 3-day termination experiment, chondrocyte biosynthesis rate (primarily aggrecan synthesis) was measured between days 0 and 3 of the experiment using a 35S-sulfate radiolabel. For the 7-day termination experiment, this measurement was done between days 5 and 7. Statistics: 1-way ANOVA with post-hoc Tukey's HSD test.
Cartilage was harvested from the knee joint of a donor. Cartilage explants were equilibrated in culture media for 3 days after harvest. […] These were cut down to 1 mm thickness and allowed to equilibrate for a further 3 days before the experiment was set up. Subsets of the experiment were terminated at 3 days and 7 days from the start of the experiment. Media changes were performed every 2 to 3 days.
Cartilage explants that were equilibrated in culture medium post-harvest were transferred to ultra-low attachment cell culture plates (Corning) for dose response experiments. All experiments were carried out in low glucose, serum free medium (same composition as equilibration medium). Previous studies studying the effects of IGF-1 on cartilage explants have used doses ranging from 10 ng/ml to 300 ng/ml. Based on these, 300 ng/ml (equivalent to 39.2 nM) of free recombinant human IGF-1 (PeproTech, Rocky Hill, NJ) was used as the positive control.
Since each fusion protein had one IGF-1 domain, equivalent doses (39.2 nM) of these were tested. In addition to this, 500 nM, 1 μM and 2 μM doses of fusion proteins were also tested. In all cases, only a single dose of the fusion proteins was added at the start of the experiment, and media changes were carried out without fusion proteins once every 2 to 3 days thereafter. In contrast, continuous doses of free IGF-1 were used for the positive control. An untreated control group was also included in the experiments. Experiments were terminated at 3-day, 7-day and 15-day time points. Outcome measures included the biosynthesis rate of sulfated glycosaminoglycans (sGAG), explant metabolic rate, sGAG loss to the culture medium and the explant sGAG content at the end of the experiment.
The metabolic rate of cartilage explants was measured using the Alamar Blue assay (ThermoFisher). Cartilage explants were incubated for 3 hours in a 1× solution of Alamar Blue dissolved in culture medium. At the end of the incubation period, the absorbance of the medium at 570 nm and 600 nm was measured using a microplate reader (Synergy H1 Hybrid Multi-Mode Microplate Reader, BioTek). These readings were used to calculate the percentage reduction of Alamar Blue, which is directly proportional to the explant metabolic rate. These values were first normalized by individual explant weights. Following this, the weight-normalized readings for the treatment groups were normalized by the weight-normalized mean value for the untreated controls. To measure the chondrocyte biosynthesis rate of sulfated glycosaminoglycans (sGAGs), cartilage explants were cultured in the presence of 10 μCi/mL 35S-sulfate radiolabel during the final two days of each experiment. Following this, the explants were washed with PBS with non-radioactive sulfate to wash out excess radiolabel, weighed and digested with proteinase K. A liquid scintillation counter (PerkinElmer) was used to measure the amount of radiolabel incorporated within the extracellular matrix of the tissues. Radiolabel incorporation data were normalized by the duration of exposure to radiolabel and by the wet weight of the explants (Li et al., Osteoarthritis and Cartilage 23(2):266-274 (2015)). […]

[1] = Experiment 1, knee, donor, single 500 nM dose, 3-day time point (days 0-3)
[2] = Experiment 2, knee, donor, single 2 μM dose, 3-day time point
[3] = Experiment 2, knee, single 1 μM dose, 7-day time point
[4] = Experiment 2, knee, single 2 μM dose, 7-day time point

Substance	aggrecan biosynthesis rate compared to the untreated control [1]	aggrecan biosynthesis rate compared to the untreated control (Experiment 2, knee, donor, single 1 μM dose, 3-day time point)	aggrecan biosynthesis rate compared to the untreated control [2]	aggrecan biosynthesis rate compared to the untreated control [3]	aggrecan biosynthesis rate compared to the untreated control [4]	aggrecan biosynthesis rate compared to the untreated control (Experiment 1, knee, donor, single 2 μM dose, 3-day time point)	mean aggrecan biosynthesis rate at Day 7 versus Day 3 (Experiment 1, knee, single 500 nM and 2 μM doses on Day 0)	aggrecan biosynthesis rate compared to the untreated control (Experiment 1, knee, single 500 nM dose, 7-day time point (days 5-7))	aggrecan biosynthesis rate compared to the untreated control (Experiment 1, knee, single 2 μM dose, 7-day time point)	aggrecan biosynthesis rate compared to the untreated control (Experiment 2, knee, donor, single 500 nM dose, 3-day time point)	aggrecan biosynthesis rate compared to the untreated control (Experiment 1, knee, donor, continuous 40 nM free IGF-1, 3-day time point)	aggrecan biosynthesis rate compared to the untreated control (Experiment 1, knee, continuous 40 nM free IGF-1, 7-day time point)	aggrecan biosynthesis rate compared to the untreated control (Experiment 2, knee, continuous 40 nM free IGF-1, 3-day time point)	aggrecan biosynthesis rate compared to the untreated control (Experiment 2, knee, continuous 40 nM free IGF-1, 7-day time point)
(+9GFP)-(EAAAK)3-(IGF-1): fusion protein of +9 GFP and human IGF-1 with rigid (EAAAK)3 linker, SEQ ID NO: 8	not statistically significantly different	statistically significantly higher	statistically significantly higher	statistically significantly higher	statistically significantly higher	–	–	–	–	–	–	–	–	–
(+9GFP)-(GGGGS)4-(IGF-1): fusion protein of +9 GFP and human IGF-1 with flexible (GGGGS)4 linker, SEQ ID NO: 7	significantly higher	–	statistically significantly higher	statistically significantly higher	statistically significantly higher	not statistically significantly different	the same as the rate on Day 3	not statistically significantly different	not statistically significantly different	statistically significantly higher	–	–	–	–
IGF-1: free recombinant human IGF-1 (PeproTech), pro-anabolic growth factor used as the positive control	–	–	–	–	–	–	–	–	–	–	significantly higher	significantly higher	statistically significantly higher	statistically significantly higher
